# Measured values reported in ChEMBL document CHEMBL4396937, “Synthesis of new triazole fused imidazo[2,1-b]thiazole hybrids with emphasis on Staphylococcus aureus virulence factors” (Bioorg Med Chem Lett, 2019).
# Active and inactive are the calls of the source. No cut-off for these calls is given here.
# What was measured:
# Type in all cases: functional
# Bacillus subtilis [1] = test: Antibacterial activity against Bacillus subtilis MTCC 121 assessed as reduction in bacterial growth incubated for 24 hrs by agar well diffusion method
# Raoultella planticola [2] = test: Antibacterial activity against Klebsiella planticola MTCC 530 assessed as reduction in bacterial growth incubated for 24 hrs by agar well diffusion method
# Candida albicans [3] = test: Fungicidal activity against Candida albicans MTCC 3017 assessed as reduction in fungal survival incubated for 24 hrs followed by transfer of microbial suspension to agar plates and measured at 24 hrs post transfer by agar well diffusion method; details: MTCC 3017, 24 h
# Escherichia coli [4] = test: Antibacterial activity against Escherichia coli MTCC 739 assessed as reduction in bacterial growth incubated for 24 hrs by agar well diffusion method
# Staphylococcus aureus [5] = test: Bactericidal activity against Staphylococcus aureus MTCC 96 assessed as reduction in bacterial survival incubated for 24 hrs followed by transfer of microbial suspension to agar plates and measured at 24 hrs post transfer by agar well diffusion method
# Micrococcus luteus [6] = test: Bactericidal activity against Micrococcus luteus MTCC 2470 assessed as reduction in bacterial survival incubated for 24 hrs followed by transfer of microbial suspension to agar plates and measured at 24 hrs post transfer by agar well diffusion method
# Candida albicans [7] = test: Antifungal activity against Candida albicans MTCC 3017 assessed as reduction in fungal growth incubated for 24 hrs by agar well diffusion method; details: MTCC 3017, 24 h
# Staphylococcus aureus [8] = test: Antibacterial activity against Staphylococcus aureus MTCC 96 assessed as reduction in bacterial growth incubated for 24 hrs by agar well diffusion method
# Raoultella planticola [9] = test: Bactericidal activity against Klebsiella planticola MTCC 530 assessed as reduction in bacterial survival incubated for 24 hrs followed by transfer of microbial suspension to agar plates and measured at 24 hrs post transfer by agar well diffusion method
# Staphylococcus aureus [10] = test: Bactericidal activity against Staphylococcus aureus MLS-16 MTCC 2940 assessed as reduction in bacterial survival incubated for 24 hrs followed by transfer of microbial suspension to agar plates and measured at 24 hrs post transfer by agar well diffusion method
# Escherichia coli [11] = test: Bactericidal activity against Escherichia coli MTCC 739 assessed as reduction in bacterial survival incubated for 24 hrs followed by transfer of microbial suspension to agar plates and measured at 24 hrs post transfer by agar well diffusion method
# Pseudomonas aeruginosa [12] = test: Bactericidal activity against Pseudomonas aeruginosa MTCC 2453 assessed as reduction in bacterial survival incubated for 24 hrs followed by transfer of microbial suspension to agar plates and measured at 24 hrs post transfer by agar well diffusion method
# Pseudomonas aeruginosa [13] = test: Antibacterial activity against Pseudomonas aeruginosa MTCC 2453 assessed as reduction in bacterial growth incubated for 24 hrs by agar well diffusion method
# Staphylococcus aureus [14] = test: Antibacterial activity against Staphylococcus aureus MLS-16 MTCC 2940 assessed as reduction in bacterial growth incubated for 24 hrs by agar well diffusion method
# Bacillus subtilis [15] = test: Bactericidal activity against Bacillus subtilis MTCC 121 assessed as reduction in bacterial survival incubated for 24 hrs followed by transfer of microbial suspension to agar plates and measured at 24 hrs post transfer by agar well diffusion method
# Micrococcus luteus [16] = test: Antibacterial activity against Micrococcus luteus MTCC 2470 assessed as reduction in bacterial growth incubated for 24 hrs by agar well diffusion method
"MIC (Bacillus subtilis [1]; MTCC 121, 24 h) [µg/mL]","MIC (Escherichia coli [4]; MTCC 739, 24 h) [µg/mL]",MIC (Candida albicans [7]) [µg/mL],"MIC (Staphylococcus aureus [8]; MTCC 96, 24 h) [µg/mL]","MIC (Pseudomonas aeruginosa [13]; MTCC 2453, 24 h) [µg/mL]","MIC (Staphylococcus aureus [14]; MLS-16 MTCC 2940, 24 h) [µg/mL]","MIC (Micrococcus luteus [16]; MTCC 2470, 24 h) [µg/mL]",SMILES,"MIC (Raoultella planticola [2]; MTCC 530, 24 h) [µg/mL]",MFC (Candida albicans [3]) [µg/mL],"MBC (Staphylococcus aureus [5]; MTCC 96, 24 h) [µg/mL]","MBC (Micrococcus luteus [6]; MTCC 2470, 24 h) [µg/mL]","MBC (Raoultella planticola [9]; MTCC 530, 24 h) [µg/mL]","MBC (Staphylococcus aureus [10]; MLS-16 MTCC 2940, 24 h) [µg/mL]","MBC (Escherichia coli [11]; MTCC 739, 24 h) [µg/mL]","MBC (Pseudomonas aeruginosa [12]; MTCC 2453, 24 h) [µg/mL]","MBC (Bacillus subtilis [15]; MTCC 121, 24 h) [µg/mL]",further results
15.6,> 125,7.8,15.6,> 125,15.6,7.8,COc1ccc(-c2nc3sccn3c2C(=O)c2cn(-c3ccc(C(F)(F)F)cc3)nn2)cc1,> 125,15.6,31.2,15.6,> 125,31.2,> 125,> 125,31.2,–
3.9,> 125,15.6,3.9,> 125,7.8,3.9,COc1ccc(-c2nc3sccn3c2C(=O)c2cn(-c3ccc(F)cc3)nn2)cc1,> 125,31.2,7.8,7.8,> 125,15.6,> 125,> 125,7.8,–
7.8,> 125,15.6,> 125,> 125,> 125,> 125,O=C(c1cn(-c2ccc(F)cc2)nn1)c1c(-c2ccccc2)nc2sccn12,> 125,31.2,> 125,> 125,> 125,> 125,> 125,> 125,15.6,–
7.8,> 125,7.8,3.9,> 125,7.8,7.8,COc1ccc(-c2nc3sccn3c2C(=O)c2cn(-c3ccc(Br)cc3)nn2)cc1,15.6,15.6,7.8,15.6,31.2,15.6,> 125,> 125,15.6,–
7.8,> 125,15.6,15.6,> 125,7.8,15.6,COc1ccc(-c2nc3sccn3c2C(=O)c2cn(-c3ccc(OC)cc3)nn2)cc1,7.8,31.2,31.2,31.2,15.6,15.6,> 125,> 125,15.6,–
7.8,> 125,7.8,3.9,> 125,7.8,3.9,COc1ccc(-c2nc3sccn3c2C(=O)c2cn(-c3ccc(F)cc3Br)nn2)cc1,15.6,15.6,7.8,7.8,15.6,15.6,> 125,> 125,15.6,–
3.9,> 125,7.8,3.9,> 125,7.8,3.9,COc1ccc(-n2cc(C(=O)c3c(-c4ccc(Cl)cc4)nc4sccn34)nn2)cc1,3.9,15.6,7.8,7.8,7.8,15.6,> 125,> 125,7.8,–
–,–,3.9,–,–,–,–,Clc1ccc(COC(Cn2ccnc2)c2ccc(Cl)cc2Cl)c(Cl)c1 (stereo not drawn) [MICONAZOLE],–,3.9,–,–,–,–,–,–,–,MIC (Bacillus subtilis [1]): inactive; MIC (Raoultella planticola [2]): inactive; MIC (Escherichia coli [4]): inactive; MBC (Staphylococcus aureus [5]): inactive; MBC (Micrococcus luteus [6]): inactive; MIC (Staphylococcus aureus [8]): inactive; MBC (Raoultella planticola [9]): inactive; MBC (Staphylococcus aureus [10]): inactive; MBC (Escherichia coli [11]): inactive; MBC (Pseudomonas aeruginosa [12]): inactive; MIC (Pseudomonas aeruginosa [13]): inactive; MIC (Staphylococcus aureus [14]): inactive; MBC (Bacillus subtilis [15]): inactive; MIC (Micrococcus luteus [16]): inactive
